Consider 31 compounds from patent US9511073B2, “Aromatic amides and uses thereof” (TAXIS Pharmaceuticals, Inc., priority 2011, dated 2016).

≈ marks a conversion by molar mass, not a printed value.

In general, AUC refers to the area under the concentration-time curve, a measure of exposure.

Tested on in the first data set: not listed separately
As to the kind of experiment: Pharmacokinetic assay: plasma concentration by LC/MS/MS after single intravenous or peroral dose of 3 mg/kg. It counts as in vivo. Conditions: 3 mg/kg IV dosing in mice. How it is done:
The pharmacokinetic profiles of selected comparator compounds A-N in Table 6 and compounds of the invention were determined by measuring the compound concentration in plasma by LC/MS/MS following a single intravenous or peroral administration of the compounds at a dose of 3 mg/kg. The concentrations described are the mean plasma concentrations at each time point from three animals. Intravenous dose formulation was administered as a single bolus dose through the tail vein. Oral dose formulation was administered to animals by an oral gavage needle. In both cases the dose volume was 5.0 mL/kg. Blood was collected from anesthetized mice through a capillary guided into the retro-orbital plexus. The collected blood was centrifuged to obtain plasma and the compounds extracted into methanol prior to determining the compound concentration by LC/MS/MS. The results are shown graphically in FIG. 1 and for the AUC and CL parameters in Table 6.
Turning to `NC(=O)c1c(F)ccc(OCc2nc3cc(-c4ccccc4)cnc3s2)c1F` [B], the area under the curve (AUC) was found to be 0.5 µg·h/mL and the “CL” value stood at 5.46 L/h/kg.

The same data set, now with this note: mouse, plasma; 3 mg/kg IV dosing in mice.
The compound `NC(=O)c1c(F)ccc(OCc2nc(-c3ccc(Cl)cc3)no2)c1F` [Compound A, 3-((3-(4-chlorophenyl)-1,2,4-oxadiazol-5-yl)methoxy)-2,6-difluorobenzamide] showed a clearance of 3.12 L/h/kg. Still for that read-out and setting: the value for `Cc1ccc(-c2csc(COc3ccc(F)c(C(N)=O)c3F)n2)cn1` [Compound C, 2,6-difluoro-3-((4-(6-methylpyridin-3-yl)thiazol-2-yl)methoxy)benzamide] was 7.8 L/h/kg.

The data set is the same for the next values; noted with them: mouse, plasma; 3 mg/kg IV dosing in mice; read-out: AUC.
For `NC(=O)c1c(F)ccc(OCc2nc(-c3ccc(Cl)cc3)no2)c1F` [Compound A, 3-((3-(4-chlorophenyl)-1,2,4-oxadiazol-5-yl)methoxy)-2,6-difluorobenzamide], the AUC came to 0.9 µg·h/mL. Turning to `Cc1ccc(-c2csc(COc3ccc(F)c(C(N)=O)c3F)n2)cn1` [Compound C, 2,6-difluoro-3-((4-(6-methylpyridin-3-yl)thiazol-2-yl)methoxy)benzamide], the AUC came out at 0.4 µg·h/mL.

For the next data set, the system named is Staphylococcus aureus (Isolate ID ATCC 29213). As to the kind of experiment: Bacterial assay: MIC by broth microdilution or agar dilution (CLSI), S. aureus ATCC 29213. It counts as cell-based. Conditions: Staphylococcus aureus, ATCC29213, read-out: S. aureus MIC (μg/mL) Activity Range, S. aureus (ATCC29213). The method, boiled down:
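Activity is binned (A ≤0.25 μg/mL; B >0.25–1.0; C >1.0–16; D >16 μg/mL) from MICs determined per CLSI by broth microdilution or agar dilution, on S. aureus ATCC 29213 plus an FtsZ-G196A mutant strain.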
Regarding `NC(=O)c1c(F)ccc(O[C@H](CO)c2nc(-c3ccc(OC(F)F)cc3)c(Br)o2)c1F` [Compound 273B, (R)-3-(1-(5-bromo-4-(4-(difluoromethoxy)phenyl)oxazol-2-yl)-2-hydroxyethoxy)-2,6-difluorobenzamide], the MIC is less than 0.25 µg/mL. Same read-out and setting: the same measure for `NC(=O)c1c(F)ccc(O[C@H](CO)c2nc(-c3ccc(OC(F)F)cc3)co2)c1F` [Compound 274B, (R)-3-(1-(4-(4-(difluoromethoxy)phenyl)oxazol-2-yl)-2-hydroxyethoxy)-2,6-difluorobenzamide]: 1 to 16 µg/mL (≈ 2.35 to 37.5 µM); for `CCc1nc([C@@H](CO)Oc2ccc(F)c(C(N)=O)c2F)oc1Br` [Compound 275B, (R)-3-(1-(5-bromo-4-ethyloxazol-2-yl)-2-hydroxyethoxy)-2,6-difluorobenzamide]: greater than 16 µg/mL. Take `NC(=O)c1c(F)ccc(OC(CNC(=O)OCc2ccccc2)c2nc(-c3ccc(C(F)(F)F)cc3)co2)c1F` (stereo not shown) [Compound 276, benzyl (2-(3-carbamoyl-2,4-difluorophenoxy)-2-(4-(4-(trifluoromethyl)phenyl)oxazol-2-yl)ethyl)carbamate]: the MIC fell in the range of 1 to 16 µg/mL (≈ 1.78 to 28.5 µM). Same read-out and setting: the same measure for `CCCCc1oc(C(CO)Oc2ccc(F)c(C(N)=O)c2F)nc1-c1ccc(C(F)(F)F)cc1` (stereo not shown) [Compound 277, 3-(1-(5-butyl-4-(4-(trifluoromethyl)phenyl)oxazol-2-yl)-2-hydroxyethoxy)-2,6-difluorobenzamide]: 1 to 16 µg/mL (≈ 2.06 to 33 µM); for `NC(=O)c1c(F)ccc(O[C@H](CO)c2nc(-c3ccc(F)cc3)co2)c1F` [Compound 278B, (R)-2,6-difluoro-3-(1-(4-(4-fluorophenyl)oxazol-2-yl)-2-hydroxyethoxy)benzamide]: greater than 16 µg/mL.

On to `NC(=O)c1c(F)ccc(O[C@H](CO)c2nc(-c3ccc(F)cc3)c(Br)o2)c1F` [Compound 279B, (R)-3-(1-(5-bromo-4-(4-fluorophenyl)oxazol-2-yl)-2-hydroxyethoxy)-2,6-difluorobenzamide], for which the MIC lay in the range of 0.25 to 1 µg/mL (≈ 0.547 to 2.19 µM).

For `NC(=O)c1c(F)ccc(OC(CNC(=O)OCc2ccccc2)c2nc(-c3ccc(C(F)(F)F)cc3)c(Br)o2)c1F` (stereo not shown) [Compound 280, benzyl (2-(5-bromo-4-(4-(trifluoromethyl)phenyl)oxazol-2-yl)-2-(3-carbamoyl-2,4-difluorophenoxy)ethyl)carbamate], the MIC fell in the range of 0.25 to 1 µg/mL (≈ 0.39 to 1.56 µM). The same measure, in the same setting: the same measure for `NCC(Oc1ccc(F)c(C(N)=O)c1F)c1nc(-c2ccc(C(F)(F)F)cc2)co1` (stereo not shown) [Compound 281, 3-(2-amino-1-(4-(4-(trifluoromethyl)phenyl)oxazol-2-yl)ethoxy)-2,6-difluorobenzamide]: greater than 16 µg/mL; for `CC(=O)NCC(Oc1ccc(F)c(C(N)=O)c1F)c1nc(-c2ccc(C(F)(F)F)cc2)co1` (stereo not shown) [Compound 282, 3-(2-acetamido-1-(4-(4-(trifluoromethyl)phenyl)oxazol-2-yl)ethoxy)-2,6-difluorobenzamide]: greater than 16 µg/mL; for `CC(=O)NCC(Oc1ccc(F)c(C(N)=O)c1F)c1nc(-c2ccc(C(F)(F)F)cc2)c(Br)o1` (stereo not shown) [Compound 283, 3-(2-acetamido-1-(5-bromo-4-(4-(trifluoromethyl)phenyl)oxazol-2-yl)ethoxy)-2,6-difluorobenzamide]: 1 to 16 µg/mL (≈ 1.82 to 29.2 µM). On the same count and under the same terms, the value for `CS(=O)(=O)NCC(Oc1ccc(F)c(C(N)=O)c1F)c1nc(-c2ccc(C(F)(F)F)cc2)co1` (stereo not shown) [Compound 284, 2,6-difluoro-3-(2-(methylsulfonamido)-1-(4-(4-(trifluoromethyl)phenyl)oxazol-2-yl)ethoxy)benzamide] was greater than 16 µg/mL; that for `CS(=O)(=O)NCC(Oc1ccc(F)c(C(N)=O)c1F)c1nc(-c2ccc(C(F)(F)F)cc2)c(Br)o1` (stereo not shown) [Compound 285, 3-(1-(5-bromo-4-(4-(trifluoromethyl)phenyl)oxazol-2-yl)-2-(methylsulfonamido)ethoxy)-2,6-difluorobenzamide] was 1 to 16 µg/mL (≈ 1.71 to 27.4 µM).

On to `CCNC(=O)NCC(Oc1ccc(F)c(C(N)=O)c1F)c1nc(-c2ccc(C(F)(F)F)cc2)co1` (stereo not shown) [Compound 286, 3-(2-(3-ethylureido)-1-(4-(4-(trifluoromethyl)phenyl)oxazol-2-yl)ethoxy)-2,6-difluorobenzamide], for which the MIC is greater than 16 µg/mL. The same measure, in the same setting: the value for `NCC(Oc1ccc(F)c(C(N)=O)c1F)c1nc(-c2ccc(C(F)(F)F)cc2)c(Br)o1` (stereo not shown) [Compound 290, 3-(2-amino-1-(5-bromo-4-(4-(trifluoromethyl)phenyl)oxazol-2-yl)ethoxy)-2,6-difluorobenzamide] was 1 to 16 µg/mL (≈ 1.98 to 31.6 µM); that for `CCNC(=O)NCC(Oc1ccc(F)c(C(N)=O)c1F)c1nc(-c2ccc(C(F)(F)F)cc2)c(Br)o1` (stereo not shown) [Compound 291, 3-(1-(5-bromo-4-(4-(trifluoromethyl)phenyl)oxazol-2-yl)-2-(3-ethylureido)ethoxy)-2,6-difluorobenzamide] was less than 0.25 µg/mL. Still for that read-out and setting: the same measure for `NC(=O)c1c(F)ccc(OC(CNC(=O)c2cccnc2)c2nc(-c3ccc(C(F)(F)F)cc3)co2)c1F` (stereo not shown) [Compound 293, N-(2-(3-carbamoyl-2,4-difluorophenoxy)-2-(4-(4-(trifluoromethyl)phenyl)oxazol-2-yl)ethyl)nicotinamide]: greater than 16 µg/mL; for `NC(=O)c1c(F)ccc(OC(CNC(=O)c2ccccn2)c2nc(-c3ccc(C(F)(F)F)cc3)co2)c1F` (stereo not shown) [Compound 294, N-(2-(3-carbamoyl-2,4-difluorophenoxy)-2-(4-(4-(trifluoromethyl)phenyl)oxazol-2-yl)ethyl)picolinamide]: greater than 16 µg/mL. Same read-out and setting: the value for `NC(=O)c1c(F)ccc(OC(CNC(=O)c2cccnc2)c2nc(-c3ccc(C(F)(F)F)cc3)c(Br)o2)c1F` (stereo not shown) [Compound 295, N-(2-(5-bromo-4-(4-(trifluoromethyl)phenyl)oxazol-2-yl)-2-(3-carbamoyl-2,4-difluorophenoxy)ethyl)nicotinamide] was 0.25 to 1 µg/mL (≈ 0.409 to 1.64 µM); that for `NC(=O)c1c(F)ccc(OC(CNC(=O)c2ccccn2)c2nc(-c3ccc(C(F)(F)F)cc3)c(Br)o2)c1F` (stereo not shown) [Compound 296, N-(2-(5-bromo-4-(4-(trifluoromethyl)phenyl)oxazol-2-yl)-2-(3-carbamoyl-2,4-difluorophenoxy)ethyl)picolinamide] was less than 0.25 µg/mL.

As to `C[C@@H](O)[C@@H](Oc1ccc(F)c(C(N)=O)c1F)c1nc(-c2ccc(OC(F)F)cc2)c(Br)o1` [Compound 297, 3-((1R,2R)-1-(5-bromo-4-(4-(difluoromethoxy)phenyl)oxazol-2-yl)-2-hydroxypropoxy)-2,6-difluorobenzamide], the MIC is less than 0.25 µg/mL. On the same count and under the same terms, the value for `NC(=O)c1c(F)ccc(OC(CNC(=O)Cc2cccnc2)c2nc(-c3ccc(C(F)(F)F)cc3)c(Br)o2)c1F` (stereo not shown) [Compound 298, 3-(1-(5-bromo-4-(4-(trifluoromethyl)phenyl)oxazol-2-yl)-2-(2-(pyridin-3-yl)acetamido)ethoxy)-2,6-difluorobenzamide] was 1 to 16 µg/mL (≈ 1.6 to 25.6 µM); that for `C[C@@H](Oc1cccc(C(N)=O)c1F)c1nc(-c2ccc(C(F)(F)F)cc2)c(Br)o1` [Compound 299] was 1 to 16 µg/mL (≈ 2.11 to 33.8 µM); that for `C[C@H](O)[C@@H](Oc1ccc(F)c(C(N)=O)c1F)c1nc(-c2ccc(OC(F)F)cc2)c(Br)o1` [Compound 300, 3-((1R,2S)-1-(5-bromo-4-(4-(difluoromethoxy)phenyl)oxazol-2-yl)-2-hydroxypropoxy)-2,6-difluorobenzamide] was less than 0.25 µg/mL. In the case of `COCCOCC(=O)NCC(Oc1ccc(F)c(C(N)=O)c1F)c1nc(-c2ccc(C(F)(F)F)cc2)c(Br)o1` (stereo not shown) [Compound 301, 3-(1-(5-bromo-4-(4-(trifluoromethyl)phenyl)oxazol-2-yl)-2-(2-(2-methoxyethoxy)acetamido)ethoxy)-2,6-difluorobenzamide], the MIC is 1 to 16 µg/mL (≈ 1.61 to 25.7 µM).

On to `NC(=O)c1c(F)ccc(OC(CNC(=O)CCC(=O)O)c2nc(-c3ccc(C(F)(F)F)cc3)c(Br)o2)c1F` (stereo not shown) [Compound 302, 4-((2-(5-bromo-4-(4-(trifluoromethyl)phenyl)oxazol-2-yl)-2-(3-carbamoyl-2,4-difluorophenoxy)ethyl)amino)-4-oxobutanoic acid], for which the MIC lay in the range of 1 to 16 µg/mL (≈ 1.65 to 26.4 µM). The same measure, in the same setting: the value for `COCc1oc([C@@H](CO)Oc2ccc(F)c(C(N)=O)c2F)nc1-c1ccc(OC)cc1` [Compound 304B, (R)-2,6-difluoro-3-(2-hydroxy-1-(5-(methoxymethyl)-4-(4-methoxyphenyl)oxazol-2-yl)ethoxy)benzamide] was 1 to 16 µg/mL (≈ 2.3 to 36.8 µM); that for `CCc1oc(-c2ccc(OC)cc2)nc1C(CO)Oc1ccc(F)c(C(N)=O)c1F` (stereo not shown) [Compound 306, 3-(1-(5-ethyl-2-(4-methoxyphenyl)oxazol-4-yl)-2-hydroxyethoxy)-2,6-difluorobenzamide] was 1 to 16 µg/mL (≈ 2.39 to 38.2 µM).
